{"source": "patent US10815222B2", "about": "“Compounds for use in the treatment of kinetoplastid infection” (C.N.C.C.S. S.c.a.r.l. COLLEZIONE NAZIONALE DEI COMPOSTI …, priority 2016, dated 2020)", "note": "pEC50: −log10 of the molar value."}
{"tested_on": "Bloodstream form of Trypanosoma brucei, strain Lister 427", "assay": "Trypanosoma brucei growth inhibition assay (CellTiter-Glo, 24 h)", "assay_type": "cell-based", "conditions": "Trypanosoma brucei; T. Brucei Growth Inibition Assay, class symbols; read-out: T. Brucei GI EC50", "description": "Bloodstream form of Trypanosoma brucei, strain Lister 427 (provided by Prof. Miguel Navarro, Instituto de Parasitologia y Biomedicina “Lopez-Neyra” Avda. Conocimiento S/N Parque Tecnologico Ciencias de la Salud—Spain; ref. Navarro M. and Cross G. A. M. Molecular and Cellular Biology, 1996, Vol. 16, No. 7, pp. 3615-3625) were grown in IMDM Iscove's Modified Dulbecco's Medium (SIGMA #17633) supplemented with: 3.024 g/l sodium bicarbonate, hypoxanthine 1 mM, thymidine 0.16 mM, bathocuprione sulfonic acid 0.05 mM, cysteine 1.5 mM, ß-mercaptoethanol […] and 10% foetal bovine serum (heat-inactivated at 56° C. for 30 min). Parasites were grown at 37° C. in flasks with vented caps in a 5% CO2 incubator to a maximum cell density of about 2×10^6/ml and diluted every two-three days.\nThe compounds of the invention were dissolved in DMSO and transferred to assay plates by acoustic droplet ejection (ATS-100, EDC Biosystems, USA) in order to obtain an appropriate concentration and to keep the concentration of DMSO below or equal to 0.25% in the final assay volume of 30 μL. 1500 parasites resuspended in 30 μL of culture medium were then transferred to each well of a 384-well plate.\nAfter an incubation period of 24 hours at 37° C., each well is added 15 μl of CellTiter-Glo® Reagent (Promega) and incubated at room temperature. 5-10 min post incubation, the plate is read using a luminometer (ViewLux®). A known inhibitor of the growth of T. brucei was used as the reference positive control."}
{"smiles": "COc1nc2ccccc2cc1-c1cnc(C2CN(C3CCN(C)CC3)CCN2C(=O)Cc2c(C)[nH]c3ccc(F)cc23)[nH]1", "note": "(stereo not shown)", "pEC50": "6.00 to 6.29"}
{"smiles": "CNC(=O)CCCN1CCN(C(=O)Cc2c(C)[nH]c3ccc(OC)cc23)C(c2ncc(-c3ccc4ccccc4c3)[nH]2)C1", "note": "(stereo not shown)", "pEC50": "6.30 to 7.00"}
{"smiles": "COc1ccc2nc(C(F)(F)F)n(CC(=O)N3CC[C@@H](N(C)C)C[C@H]3c3ncc(-c4cc5ccccc5nc4OC)[nH]3)c2c1", "pEC50": "6.00 to 6.29"}
{"smiles": "COc1ccc2cc(C)n(CC(=O)N3CCN(C)CCC3c3ncc(-c4cc5ccccc5nc4OC)[nH]3)c2c1", "note": "(stereo not shown)", "pEC50": "6.00 to 6.29"}
{"smiles": "COc1nc2ccccc2cc1-c1cnc(C2COCCN2C(=O)Cn2nc(C)c3ccccc3c2=O)[nH]1", "note": "(stereo not shown)", "pEC50": "5.30 to 6.00"}
{"smiles": "COc1nc2ccccc2cc1-c1cnc([C@@H]2CN(CC3CCOC3)CCN2C(=O)Cn2c(C)nc3cc(C(F)(F)F)ccc32)[nH]1", "note": "(stereo partly shown)", "pEC50": "6.30 to 7.00"}
{"smiles": "CCC(=O)CCCN1CCN(C(=O)Cc2ccccc2)C(c2ncc(-c3ccc4ccccc4c3)[nH]2)C1", "note": "(stereo not shown)", "pEC50": "5.30 to 6.00"}
{"smiles": "CCC(=O)CCCN1CCN(Cc2ccccc2)C(c2ncc(-c3ccc4ccccc4c3)[nH]2)C1", "note": "(stereo not shown) [6-(4-benzyl-3-(5-(naphthalen-2-yl)-1H-imidazol-2-yl)piperazin-1-yl)hexan-3-one]", "pEC50": "5.30 to 6.00"}
{"smiles": "COc1cccc(CCC(=O)N2CCN(CC3CCOC3)CC2c2ncc(-c3cc4ccccc4nc3OC)[nH]2)c1", "note": "(stereo not shown)", "pEC50": "5.30 to 6.00"}
{"smiles": "COc1ccc2nc(C(F)(F)F)n(CC(=O)N3CC[C@@H](NC4CCOC4)C[C@H]3c3ncc(-c4cc5ccccc5nc4OC)[nH]3)c2c1", "note": "(stereo partly shown)", "pEC50": "6.30 to 7.00"}
{"smiles": "Cc1[nH]c2ccccc2c1CC(=O)N1CCN(Cc2ccccc2)CC1c1ncc(-c2ccc3ccccc3c2)[nH]1", "note": "(stereo not shown)", "pEC50": "5.30 to 6.00"}
{"smiles": "COc1ccc2nc(C(F)(F)F)n(CC(=O)N3CCN(CCc4csc(C)n4)C[C@H]3c3ncc(-c4cc5ccccc5nc4OC)[nH]3)c2c1", "note": "[(S)-2-(6-methoxy-2-(trifluoromethyl)-1H-benzo[d]imidazol-1-yl)-1-(2-(5-(2-methoxyquinolin-3-yl)-1H-imidazol-2-yl)-4-(2-(2-methylthiazol-4-yl)ethyl)piperazin-1-yl)ethan-1-one]", "pEC50": "> 7.00"}
{"smiles": "CCCCCCN1CCN(C(=O)Cc2c(C)[nH]c3ccccc23)C(c2ncc(-c3ccc4ccccc4c3)[nH]2)C1", "note": "(stereo not shown)", "pEC50": "6.00 to 6.29"}
{"smiles": "CN1CCN(C(=O)Cc2cnc3ccccc3c2)C(c2ncc(-c3ccc4ccccc4c3)[nH]2)C1", "note": "(stereo not shown)", "pEC50": "5.30 to 6.00"}
{"smiles": "COc1nc2ccccc2cc1-c1cnc([C@@H]2CN(CC3CCOC3)CCN2C(=O)Cc2noc3ccc(F)cc23)[nH]1", "note": "(stereo partly shown)", "pEC50": "5.30 to 6.00"}
{"smiles": "COc1nc2ccccc2cc1-c1cnc(C2CNCCN2C(=O)Cc2ccccc2)[nH]1", "note": "(stereo not shown)", "pEC50": "5.30 to 6.00"}
{"smiles": "CCC(=O)CCCN1CCN(S(=O)(=O)c2ccccc2)C(c2ncc(-c3ccc4ccccc4c3)[nH]2)C1", "note": "(stereo not shown) [6-(3-(5-(naphthalen-2-yl)-1H-imidazol-2-yl)-4-(phenylsulfonyl)piperazin-1-yl)hexan-3-one]", "pEC50": "5.30 to 6.00"}
{"smiles": "O=C(Cc1nc2ccccc2o1)N1CCN(CC2CCOC2)CC1c1ncc(-c2ccc3ccccc3c2)[nH]1", "note": "(stereo not shown)", "pEC50": "6.00 to 6.29"}
{"smiles": "COc1ccc2cc(C)n(CC(=O)N3CCN(CC4CCOC4)C[C@H]3c3ncc(-c4cc5ccccc5nc4OC)[nH]3)c2c1", "note": "(stereo partly drawn) [2-(6-methoxy-2-methyl-1H-indol-1-yl)-1-((2S)-2-(5-(2-methoxyquinolin-3-yl)-1H-imidazol-2-yl)-4-((tetrahydrofuran-3-yl)methyl)piperazin-1-yl)ethan-1-one]", "pEC50": "> 7.00"}
{"smiles": "COc1ccc2c(c1)C(CC(=O)N1CCN(CCc3ccccc3)CC1c1ncc(-c3ccc4ccccc4c3)[nH]1)C(=O)N2", "note": "(stereo not shown)", "pEC50": "6.00 to 6.29"}
{"smiles": "COc1ccc2nc(C(F)(F)F)n(CC(=O)N3CC[C@H](N(Cc4ccn(C)n4)C(C)C)C[C@H]3c3ncc(-c4cc5ccccc5nc4OC)[nH]3)c2c1", "note": "[1-((2S,4S)-4-(isopropyl((1-methyl-1H-pyrazol-3-yl)methyl)amino)-2-(5-(2-methoxyquinolin-3-yl)-1H-imidazol-2-yl)piperidin-1-yl)-2-(6-methoxy-2-(trifluoromethyl)-1H-benzo[d]imidazol-1-yl)ethan-1-one]", "pEC50": "> 7.00"}
{"smiles": "COc1ccc2nc(C)n(CC(=O)N3CCN(CC4CCOC4)C[C@H]3c3ncc(-c4ccc5ncccc5c4)[nH]3)c2c1", "note": "(stereo partly shown)", "pEC50": "5.30 to 6.00"}
{"smiles": "COc1ccc2nc(C(F)(F)F)n(CC(=O)N3CCN(Cc4ccn(C)n4)CCC3c3ncc(-c4cc5ccccc5nc4OC)[nH]3)c2c1", "note": "(stereo not shown) [2-(6-methoxy-2-(trifluoromethyl)-1H-benzo[d]imidazol-1-yl)-1-(7-(5-(2-methoxyquinolin-3-yl)-1H-imidazol-2-yl)-4-((1-methyl-1H-pyrazol-3-yl)methyl)-1,4-diazepan-1-yl)ethan-1-one]", "pEC50": "> 7.00"}
{"smiles": "COc1ccc2nc(C(F)(F)F)n(CC(=O)N3CCN(CC4CCOC4)C[C@H]3c3nnc(-c4cc5ccccc5nc4OC)[nH]3)c2c1", "note": "(stereo partly drawn) [2-(6-methoxy-2-(trifluoromethyl)-1H-benzo[d]imidazol-1-yl)-1-((2S)-2-(5-(2-methoxyquinolin-3-yl)-4H-1,2,4-triazol-3-yl)-4-((tetrahydrofuran-3-yl)methyl)piperazin-1-yl)ethan-1-one]", "pEC50": "> 7.00"}
{"smiles": "COc1nc2ccccc2cc1-c1cnc(C2CN(CC3CCOC3)CCN2C(=O)c2c(-c3ccccc3)noc2C)[nH]1", "note": "(stereo not shown)", "pEC50": "5.30 to 6.00"}
{"smiles": "COc1ccc2nc(C(F)(F)F)n(CC(=O)N3CCN(CCc4cnoc4)C[C@H]3c3ncc(-c4cc5ccccc5nc4OC)[nH]3)c2c1", "note": "[(S)-1-(4-(2-(isoxazol-4-yl)ethyl)-2-(5-(2-methoxyquinolin-3-yl)-1H-imidazol-2-yl)piperazin-1-yl)-2-(6-methoxy-2-(trifluoromethyl)-1H-benzo[d]imidazol-1-yl)ethan-1-one]", "pEC50": "> 7.00"}
{"smiles": "COc1ccc2nc(C)n(CC(=O)N3CCCCC3c3ncc(-c4cc5ccccc5nc4OC)[nH]3)c2c1", "note": "(stereo not shown)", "pEC50": "6.30 to 7.00"}
{"smiles": "COc1ccc2nc(C(F)(F)F)n(CC(=O)N3CCN(CC4CCOC4)C[C@H]3c3noc(-c4cc5ccccc5nc4OC)n3)c2c1", "note": "(stereo partly drawn) [2-(6-methoxy-2-(trifluoromethyl)-1H-benzo[d]imidazol-1-yl)-1-((2S)-2-(5-(2-methoxyquinolin-3-yl)-1,2,4-oxadiazol-3-yl)-4-((tetrahydrofuran-3-yl)methyl)piperazin-1-yl)ethan-1-one]", "pEC50": "5.30 to 6.00"}
{"smiles": "COc1nc2ccccc2cc1-c1cnc([C@@H]2CN(Cc3ncco3)CCN2C(=O)Cn2c(C(F)(F)F)nc3ccccc32)[nH]1", "note": "[(S)-1-(2-(5-(2-methoxyquinolin-3-yl)-1H-imidazol-2-yl)-4-(oxazol-2-ylmethyl)piperazin-1-yl)-2-(2-(trifluoromethyl)-1H-benzo[d]imidazol-1-yl)ethan-1-one]", "pEC50": "> 7.00"}
{"smiles": "Cc1[nH]c2ccc(F)cc2c1CC(=O)N1CCS(=O)(=O)CC1c1ncc(-c2ccc3ccccc3c2)[nH]1", "note": "(stereo not shown)", "pEC50": "6.30 to 7.00"}
{"smiles": "COc1nc2ccccc2cc1-c1cnc(C2CN(CC3CCOC3)CCN2C(=O)Cc2ccc(N3CCNC3=O)cc2)[nH]1", "note": "(stereo not shown)", "pEC50": "5.30 to 6.00"}
{"smiles": "COc1nc2ccccc2cc1-c1cnc(C2COCCN2C(=O)OCc2ccccc2)[nH]1", "note": "(stereo not shown) [benzyl 3-(5-(2-methoxyquinolin-3-yl)-1H-imidazol-2-yl)morpholine-4-carboxylate]", "pEC50": "5.30 to 6.00"}
{"smiles": "COc1ccc2nc(C(F)(F)F)n(CC(=O)N3CC[C@H](N[C@H]4CCOC4)C[C@H]3c3ncc(-c4cc5ccccc5nc4OC)[nH]3)c2c1", "note": "[2-(6-methoxy-2-(trifluoromethyl)-1H-benzo[d]imidazol-1-yl)-1-((2S,4S)-2-(5-(2-methoxyquinolin-3-yl)-1H-imidazol-2-yl)-4-(((S)-tetrahydrofuran-3-yl)amino)piperidin-1-yl)ethan-1-one]", "pEC50": "> 7.00"}
{"smiles": "COc1ccc2[nH]c(C)c(CC(=O)N3CCN(C)CC3c3ncc(-c4ccccc4)[nH]3)c2c1", "note": "(stereo not shown)", "pEC50": "5.30 to 6.00"}
